According to patent US12528825B2, “Compounds and uses thereof” (Foghorn Therapeutics Inc., priority 2020, dated 2026):
Entries after “also recorded” stand apart in the source; their conditions may differ.

Columns and labels:
[1] = test system: non-synovial control cancer cell lines (293T, A549, G401); experiment: Growth of non-synovial control cancer cell lines (crystal violet, colony imaging); format: cell-based; conditions: 1 μM or indicated doses, FIGS. 4-6
Experimental: (§1) Cells were treated with DMSO or the BRD9 degrader, Compound 1, at indicated concentrations, and proliferation was monitored from day 7 to day 14 by measuring confluency over time using an IncuCyte live cell analysis system (FIG. 4). Growth medium and compounds were refreshed every 3-4 days.
(§2) Cells were seeded into 12-well plates and treated with DMSO, 1 μM BRD9 inhibitor, Compound 2 (also known as BI-7273, see Martin et al, J Med Chem. 59(10):4462-4475 (2016); see structure of compound 2 below), or 1 μM BRD9 degrader, Compound 1.
(§3) The number of cells was optimized for each cell line. Growth medium and compounds were refreshed every 3-5 days. SYO1, Yamato, A549, 293T and HS-SY-II cells were fixed and stained at day 11. ASKA cells were fixed and stained at day 23. Staining was done by incubation with crystal violet solution (0.5 g Crystal Violet, 27 ml 37% Formaldehyde, 100 mL 10×PBS, 10 mL Methanol, 863 dH20 to 1 L) for 30 min followed by 3× washes with water and drying the plates for at least 24 h at room temperature. Subsequently plates were scanned on an Odyssey CLx Imaging system (FIG. 5).
(§4) Cells were seeded into 96-well ultra-low cluster plate (Costar, #7007) in 200 μL complete media and treated at day 2 with DMSO, Staurosporin, or BRD9 degrader, Compound 1, at indicated doses (FIG. 2C). Media and compounds were changed every 5 d and cell colonies were imaged at day 14.

[2] = test system: synovial sarcoma cell lines (SYO1, HS-SY-II, and ASKA); experiment: Crystal violet growth assay, synovial sarcoma cell lines, day 14; format: cell-based; conditions: for inhibition of growth of synovial sarcoma cell lines: SYO1, HS-SY-II, ASKA, treated daily, indicated concentrations, day 14, FIG. 7
Experimental: (§5) Procedure: Cells were seeded into 6-well or 12-well plates and were treated daily with a BRD9 degrader (Compound 1), a bromo-domain BRD9 binder (Compound 2), E3 ligase binder (lenalidomide), DMSO, or staurosporin (positive control for cell killing), at indicated concentrations. The number of cells was optimized for each cell line. Growth media was refreshed every 5 days. By day 14, medium was removed, cells were washed with PBS, and stained using 500 μL of 0.005% (w/v) crystal violet solution in 25% (v/v) methanol for at least 1 hour at room temperature. Subsequently plates were scanned on an Odyssey CLx Imaging system.

SYO1 cells [3] = experiment: Apoptosis assay (Annexin V-FITC); format: cell-based, human; conditions: 200 nM or 1 μM, 8 days, compared to DMSO controls
Experimental: (§6) Procedure: SYO1 cells were treated for 8 or 13 days with DMSO, a BRD9 degrader (Compound 1) at 200 nM or 1 μM, or an E3 ligase binder (lenalidomide) at 200 nM. Compounds were refreshed every 5 days. Cell cycle analysis was performed using the Click-iT™ Plus EdU Flow Cytometry Assay (Invitrogen). The apoptosis assay was performed using the Annexin V-FITC Apoptosis Detection Kit (Sigma A9210). Assays were performed according to the manufacturer's protocol.

[4] = test system: non-synovial control cancer cell lines (RD, HCT116, and Calu6); experiment: Crystal violet growth assay, non-synovial control cancer cell lines, day 14; format: cell-based; conditions: treated daily, indicated concentrations, FIG. 8
Experimental: as §5

[5] = test system: synovial sarcoma cell lines (SYO1, Yamato, HS-SY-II, and ASKA); experiment: Growth of synovial sarcoma cell lines (IncuCyte confluency, crystal violet, colony imaging); format: cell-based; conditions: 1 μM or indicated concentrations, FIGS. 4-6
Experimental: as §1, §2, §3, §4

SYO1 cells [6] = experiment: Cell cycle analysis (Click-iT Plus EdU flow cytometry); format: cell-based, human; conditions: 200 nM or 1 μM, 8 or 13 days, compared to DMSO and lenalidomide
Experimental: as §6

[7] = test system: SYO-1 human biphasic synovial sarcoma tumor cells; experiment: SYO-1 synovial sarcoma xenograft tumor growth in NOD SCID mice; format: in vivo; conditions: 1 mg/kg, i.p., daily, 3 weeks, SYO-1 xenograft
Experimental: (§7) Method: NOD SCID mice (Beijing Anikeeper Biotech, Beijing) were inoculated subcutaneously on the right flank with the single cell suspension of SYO-1 human biphasic synovial sarcoma tumor cells (5×106) in 100 μL Dulbecco's Modified Eagle Medium (DMEM) with 10% fetal bovine serum (FBS). The mice were randomized into either control group [10% dimethyl sulfoxide (DMSO), 40% polyethylene glycol (PEG400) and 50% water], or treatment group D1 when the mean tumor size reached about 117 mm^3. Mice were dosed daily through intraperitoneal (i.p.) route over the course of 3 weeks. All dose volumes were adjusted by body weights in terms of mg/kg.

[8] = Tolerability (% body weight change) in the SYO-1 xenograft study; format: in vivo; conditions: 1 mg/kg, i.p., daily, 3 weeks; NOD SCID mice
Experimental: as §7

BRD9 = biological target: T1, BRD9 (Homo sapiens, UniProt Q9H8M2); experiment: BRD9 western blot in synovial sarcoma tumors in vivo; parameters: species or system mice; conditions: 1 mg/kg, i.p., 4 weeks; tumors collected 8, 72 and 168 hours post last dose; effect up to 168 hours after dose
T1 construct: Tumors were lysed with 1× RIPA lysis buffer; from tissue; host or cells: synovial sarcoma tumours collected from treated mice
T1 sequence (Q9H8M2 1-597): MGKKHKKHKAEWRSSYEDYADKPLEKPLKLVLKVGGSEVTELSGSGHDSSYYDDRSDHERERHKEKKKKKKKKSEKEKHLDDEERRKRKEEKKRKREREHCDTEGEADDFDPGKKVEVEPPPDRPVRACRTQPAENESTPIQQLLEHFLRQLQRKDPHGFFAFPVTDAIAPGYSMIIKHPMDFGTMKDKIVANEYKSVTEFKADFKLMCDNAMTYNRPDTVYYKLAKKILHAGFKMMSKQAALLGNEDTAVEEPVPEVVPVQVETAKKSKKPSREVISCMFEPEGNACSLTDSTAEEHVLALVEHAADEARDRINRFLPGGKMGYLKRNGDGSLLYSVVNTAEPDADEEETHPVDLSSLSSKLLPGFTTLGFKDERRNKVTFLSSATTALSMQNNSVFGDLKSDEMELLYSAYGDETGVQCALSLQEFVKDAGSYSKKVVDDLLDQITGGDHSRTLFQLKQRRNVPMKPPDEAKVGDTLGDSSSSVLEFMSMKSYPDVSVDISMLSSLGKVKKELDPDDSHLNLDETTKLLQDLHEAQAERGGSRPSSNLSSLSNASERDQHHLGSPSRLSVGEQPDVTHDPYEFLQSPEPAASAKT
Experimental: Method: Mice were treated with D1, 1 mg/kg, i.p. for 4 weeks. Mice were then euthanized, and tumors were collected at 8 hours, 72 hours, and 168 hours post last dose. Tumors were lysed with 1× RIPA lysis buffer (Boston BioProducts, BP-115D) with protease and phosphatase protein inhibitor (Roche Applied Science #04906837001 & 05892791001). Equal amounts of lysate (30 μg) were loaded in 4-12% Bis-Tris Midi Protein Gels in 1×MOPS buffer; samples ran at 120 V for 120 minutes. Protein was transferred to membrane with TransBlot at 250 mA for 150 minutes, and then membranes were blocked with Odyssey blocking buffer for 1 hour at room temperature. Membranes were hybridized overnight in cold room with primary antibodies. Images acquired using Li-COR imaging system (Li-COR Biotechnology, Lincoln, Nebraska).

| SMILES | inhibition of growth of non-synovial control cancer cell lines [1] | inhibition of growth of synovial sarcoma cell lines [2] | growth inhibition compared with the other test compounds ([2]; all synovial cell lines) | numbers of early- and late-apoptotic cells (SYO1 cells [3]) | inhibition of growth of non-synovial control cancer cell lines [4] | inhibition of growth of synovial sarcoma cell lines [5] | numbers of cells in the S-phase of the cell cycle (SYO1 cells [6]) | tumor growth [7] | tolerability based on % body weight change [8] | BRD9 level in tumor (western blot) (BRD9) |
| --- | --- | --- | --- | --- | --- | --- | --- | --- | --- | --- |
| COc1cc(-c2cn(C)c(=O)c3cnccc23)cc(OC)c1CN(C)CC(=O)NCCOCCOCCNc1cccc2c1C(=O)N(C1CCC(=O)NC1=O)C2=O (centres unmarked) [Compound 1] | does not result in inhibition of the growth | inhibition of the growth of the cells | most significant growth inhibition | increased numbers of early- and late-apoptotic cells | did not result in inhibition of the growth | inhibition of the growth of the cells | reduced numbers of cells in the S-phase | – | – | – |
| COc1cc(-c2cn(C)c(=O)c3cnccc23)cc(OC)c1CN(C)C [Compound 2] | does not result in inhibition of the growth | inhibition of the growth of the cells | – | – | did not result in inhibition of the growth | inhibition of the growth of the cells | – | – | – | – |
| COc1cc(-c2cn(C)c(=O)c3cc(C(=O)NC4CCN(C5CCN(c6ccc7c(c6)C(=O)N(C6CCC(=O)NC6=O)C7)CC5)CC4(F)F)sc23)cc(OC)c1CN(C)C (centres unmarked) [Compound D1, 7-[4-[(dimethylamino)methyl]-3,5-dimethoxyphenyl]-N-[1′-[2-(2,6-dioxopiperidin-3-yl)-3-oxo-1H-isoindol-5-yl]-3,3-difluoro-[1,4′-bipiperidin]-4-yl]-5-methyl-4-oxothieno[3,2-c]pyridine-2-carboxamide] | – | – | – | – | – | – | – | tumor growth inhibition | well tolerated | complete degradation; also recorded: BRD9 inhibition |
